Results published in patent US10940139B2, “Compounds that interact with the Ras superfamily for the treatment of cancers, inflammatory diseases, rasopathies, and fibrotic disease” (Shy Therapeutics LLC, priority 2017, dated 2021).
Where two headings read alike, the source gives them in different places.

Columns and labels:
Assay in all cases: Ras GTP binding domain inhibition assay (labeled GTP)
KRas G12C mutant = KRas G12C mutant (Homo sapiens (Human), UniProt P01116, G12C); conditions: 20 μM compound
Method in brief: (§1)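 Ni-plate capture of His-KRas (3-10 μg/ml, o/n, 4° C); Tris pH 7.5/MgCl2/DTT buffer, 1% DMSO. Cpd 20 μM or titration, 3 h RT. Cy3/Cy5-GTP 45 min RT, wash, fluorescence of bound GTP.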

KRas wild type = KRas wild type (Homo sapiens (Human), UniProt P01116); conditions: 20 μM compound
Method in brief: as §1

[1] = biological target: KRas G12D/Q61H double mutant (Homo sapiens (Human), UniProt P01116, G12D/Q61H); conditions: for inhibition at 20 µM: 20 μM compound; for IC50: serial dilution, read-out: KRas G12D Q61H (classes E-H, IC50)
Method in brief: as §1

KRas G12D mutant protein = KRas G12D mutant protein (Homo sapiens (Human), UniProt P01116, G12D); conditions: 20 μM compound
[2] = biological target: KRas G12C/Q61H double mutant (Homo sapiens (Human), UniProt P01116, G12C/Q61H); conditions: 20 μM compound; read-out: % Inhibition at 20 μM KRas G12C Q61H
Method in brief: as §1

KRas Q61H mutant = KRas Q61H mutant (Homo sapiens (Human), UniProt P01116, Q61H); conditions: 20 μM compound; read-out: % Inhibition at 20 μM KRas Q61H
Method in brief: as §1

[3] = read-out: % Inhibition at 20 μM KRas G12C
[4] = read-out: % Inhibition at 20 μM KRas wild type
[5] = read-out: % Inhibition at 20 μM KRas G12D Q61H
[6] = read-out: % Inhibition at 20 μM KRas G12D

Sequence of KRas wild type (P01116-2 other isoform, or with tags, fused parts or gaps): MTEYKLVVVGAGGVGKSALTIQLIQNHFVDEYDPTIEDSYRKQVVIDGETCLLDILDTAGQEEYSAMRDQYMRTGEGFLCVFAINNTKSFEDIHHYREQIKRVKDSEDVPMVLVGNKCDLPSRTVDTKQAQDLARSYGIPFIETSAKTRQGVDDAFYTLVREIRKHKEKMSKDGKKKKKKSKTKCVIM
Sequence of KRas G12D/Q61H double mutant (P01116-2 other isoform, or with tags, fused parts or gaps G12D/Q61H): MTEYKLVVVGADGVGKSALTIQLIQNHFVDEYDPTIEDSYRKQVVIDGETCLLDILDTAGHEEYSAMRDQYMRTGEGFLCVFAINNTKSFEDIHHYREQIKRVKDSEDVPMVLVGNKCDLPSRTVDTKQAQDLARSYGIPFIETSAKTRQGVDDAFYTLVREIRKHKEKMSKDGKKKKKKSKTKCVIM
Sequence of KRas G12D mutant protein (P01116-2 other isoform, or with tags, fused parts or gaps G12D): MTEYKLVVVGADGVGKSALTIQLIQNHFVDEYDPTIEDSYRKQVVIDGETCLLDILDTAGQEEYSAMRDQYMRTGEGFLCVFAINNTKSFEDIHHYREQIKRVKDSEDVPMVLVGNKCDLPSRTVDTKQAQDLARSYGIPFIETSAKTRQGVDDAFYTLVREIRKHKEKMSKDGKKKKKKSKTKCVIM
Sequence of KRas G12C/Q61H double mutant (P01116-2 other isoform, or with tags, fused parts or gaps G12C/Q61H): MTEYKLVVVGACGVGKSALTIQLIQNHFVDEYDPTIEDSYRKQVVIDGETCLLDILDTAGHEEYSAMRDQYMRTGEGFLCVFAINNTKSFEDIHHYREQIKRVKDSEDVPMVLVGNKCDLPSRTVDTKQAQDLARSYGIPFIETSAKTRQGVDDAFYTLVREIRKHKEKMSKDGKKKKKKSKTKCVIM
Sequence of KRas G12C mutant (P01116-2 other isoform, or with tags, fused parts or gaps G12C): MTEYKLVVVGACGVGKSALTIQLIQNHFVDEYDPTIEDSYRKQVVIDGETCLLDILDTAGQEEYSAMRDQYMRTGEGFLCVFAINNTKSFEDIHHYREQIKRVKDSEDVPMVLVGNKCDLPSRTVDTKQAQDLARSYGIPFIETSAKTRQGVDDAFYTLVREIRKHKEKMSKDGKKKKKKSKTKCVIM
Sequence of KRas Q61H mutant (P01116-2 other isoform, or with tags, fused parts or gaps Q61H): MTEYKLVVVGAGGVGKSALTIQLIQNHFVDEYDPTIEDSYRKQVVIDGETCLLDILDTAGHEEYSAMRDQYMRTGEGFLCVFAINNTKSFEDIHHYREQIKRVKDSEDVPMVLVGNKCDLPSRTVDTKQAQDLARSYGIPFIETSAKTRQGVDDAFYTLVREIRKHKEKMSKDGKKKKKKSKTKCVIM

Row | SMILES | inhibition at 20 µM (KRas G12C mutant; [3]) | inhibition at 20 µM (KRas wild type; [4]) | inhibition at 20 µM [1, 5] | inhibition at 20 µM (KRas G12D mutant protein; [6]) | IC50 [1] | inhibition at 20 µM [2] | inhibition at 20 µM (KRas Q61H mutant) | inhibition at 20 µM (KRas G12C mutant; KRas G12C, read-out: % Inhibition at 20 μM of K-Ras mutant and wild-type protein, KRas G12C) | inhibition at 20 µM (KRas wild type; KRas wild type, read-out: % Inhibition at 20 μM of K-Ras mutant and wild-type protein, KRas wild type) | inhibition at 20 µM ([1]; KRas G12D/Q61H double mutant, read-out: % Inhibition at 20 μM of K-Ras mutant and wild-type protein, KRas G12D Q61H) | inhibition at 20 µM (KRas G12D mutant protein; KRas G12D, read-out: % Inhibition at 20 μM of K-Ras mutant and wild-type protein, KRas G12D)
1 | O=C(c1ccc(=O)[nH]n1)N1CCCc2c(O)nc(-c3ccccn3)nc21 [drawing 2646] | 25 to 50% | 51 to 75% | 25 to 50% | 51 to 75% |  |  |  |  |  |  | 
2 | O=C(OCCc1ccccc1)N1CCCc2c(O)nc(-c3ccccn3)nc21 [drawing 2653] | 25 to 50% | 51 to 75% | 76 to 100% | 51 to 75% |  |  |  |  |  |  | 
3 | O=C(c1ccccn1)N1CCCc2c(O)nc(-c3ccccn3)nc21 [drawing 2655] | 25 to 50% | 25 to 50% | 51 to 75% | 25 to 50% |  |  |  |  |  |  | 
4 | Oc1nc(-c2ccccn2)nc2c(Br)csc12 [drawing 2673] | 25 to 50% | 25 to 50% | 51 to 75% | 25 to 50% |  |  |  |  |  |  | 
5 | O=C(c1csc2c(O)nc(-c3ccccn3)nc12)N1CCC(N2CCCC2=O)CC1 [drawing 2679] | 51 to 75% | 51 to 75% | 51 to 75% | 51 to 75% |  |  |  |  |  |  | 
6 | O=C(c1csc2c(O)nc(-c3ccccn3)nc12)N1CCN(c2ccccc2)CC1 [drawing 2680] | 25 to 50% | 51 to 75% | 76 to 100% | 51 to 75% | 5 to 10 µM |  |  |  |  |  | 
7 | O=C(c1csc2c(O)nc(-c3ccccn3)nc12)N1CCN(c2ccncc2)CC1 [drawing 2681] | 25 to 50% | 51 to 75% | 51 to 75% | 51 to 75% |  |  |  |  |  |  | 
8 | O=C(c1csc2c(O)nc(-c3ccccn3)nc12)N1CCC(c2cccnc2)CC1 [drawing 2682] | 25 to 50% | 76 to 100% | 51 to 75% | 51 to 75% |  |  |  |  |  |  | 
9 | CC1(O)CCN(C(=O)c2csc3c(O)nc(-c4ccccn4)nc23)CC1 [drawing 2683] | 25 to 50% | 51 to 75% | 25 to 50% | 51 to 75% |  |  |  |  |  |  | 
10 | CC1(N)CCN(C(=O)c2csc3c(O)nc(-c4ccccn4)nc23)CC1 [drawing 2684] | 76 to 100% | 25 to 50% | 76 to 100% | 51 to 75% |  |  |  |  |  |  | 
11 | O=C(c1csc2c(O)nc(-c3ccccn3)nc12)N(CCO)CCOCCO [drawing 2687] | 51 to 75% | 25 to 50% | 76 to 100% | 51 to 75% |  |  |  |  |  |  | 
12 | O=C(NCCc1cccnc1)c1csc2c(O)nc(-c3ccccn3)nc12 [drawing 2689] | 25 to 50% | 76 to 100% | 51 to 75% | 51 to 75% |  |  |  |  |  |  | 
13 | Oc1nc(-c2ccccn2)nc2c(-c3ccccc3Cl)csc12 [drawing 2695] | 25 to 50% | 1 to 25% | 51 to 75% | 25 to 50% |  | 51 to 75% | 51 to 75% |  |  |  | 
14 | Oc1nc(-c2ccccn2)nc2c1ncn2-c1ccccc1 [drawing 2697] | 25 to 50% | 51 to 75% | 51 to 75% | 51 to 75% |  |  |  |  |  |  | 
15 | Oc1nc(-c2ccccn2)nc2scc(Br)c12 [drawing 2703] | 25 to 50% | 51 to 75% | 51 to 75% | 51 to 75% |  | 51 to 75% | 76 to 100% |  |  |  | 
16 | Oc1nc(-c2ccccn2)nc2sccc12 [drawing 2704] | 25 to 50% | 25 to 50% | 51 to 75% | 25 to 50% | 11 to 30 µM | 51 to 75% | 51 to 75% |  |  |  | 
17 | c1ccc(-c2nc(NCC3CCCO3)c3ccsc3n2)nc1 (stereo not shown) [drawing 2705] | 51 to 75% | 25 to 50% | 25 to 50% | 51 to 75% |  |  |  |  |  |  | 
18 | COc1ccnc(-c2nc(O)c3ccsc3n2)c1 [drawing 2708] | 51 to 75% | 25 to 50% | 51 to 75% | 51 to 75% | 5 to 10 µM | 51 to 75% | 51 to 75% |  |  |  | 

Row | SMILES | inhibition at 20 µM (KRas G12C mutant; [3]) | inhibition at 20 µM (KRas wild type; [4]) | inhibition at 20 µM [1, 5] | inhibition at 20 µM (KRas G12D mutant protein; [6]) | IC50 [1] | inhibition at 20 µM [2] | inhibition at 20 µM (KRas Q61H mutant) | inhibition at 20 µM (KRas G12C mutant; KRas G12C, read-out: % Inhibition at 20 μM of K-Ras mutant and wild-type protein, KRas G12C) | inhibition at 20 µM (KRas wild type; KRas wild type, read-out: % Inhibition at 20 μM of K-Ras mutant and wild-type protein, KRas wild type) | inhibition at 20 µM ([1]; KRas G12D/Q61H double mutant, read-out: % Inhibition at 20 μM of K-Ras mutant and wild-type protein, KRas G12D Q61H) | inhibition at 20 µM (KRas G12D mutant protein; KRas G12D, read-out: % Inhibition at 20 μM of K-Ras mutant and wild-type protein, KRas G12D)
19 | COCCC(C)Nc1nc(-c2ccccn2)nc2sccc12 (stereo not shown) [drawing 2709] | 25 to 50% | 1 to 25% | 25 to 50% | 51 to 75% |  |  |  |  |  |  | 
20 | COCCCCNC(=O)c1csc2nc(-c3ccccn3)nc(N3CCN(C)CC3)c12 [drawing 2739] | 25 to 50% | 1 to 25% | 25 to 50% | 25 to 50% |  |  |  |  |  |  | 
21 | O=C(c1csc2c(O)nc(-c3ccccn3)nc12)N1CCOC(c2ccc(F)cc2)C1 (stereo not shown) [drawing 2743] | 51 to 75% | 51 to 75% | 51 to 75% | 51 to 75% |  |  |  |  |  |  | 
22 | CC1CN(c2ccccc2)CCN1C(=O)c1csc2c(O)nc(-c3ccccn3)nc12 (stereo not shown) [drawing 2761] | 51 to 75% | 25 to 50% | 51 to 75% | 76 to 100% | 5 to 10 µM | 76 to 100% | 76 to 100% |  |  |  | 
23 | COc1cccc(CN2CCN(C(=O)c3csc4c(O)nc(-c5ccccn5)nc34)CC2)c1 [drawing 2763] | 25 to 50% | 25 to 50% | 25 to 50% | 76 to 100% |  | 76 to 100% | 76 to 100% |  |  |  | 
24 | O=C(c1csc2c(O)nc(-c3ccccn3)nc12)N1CCOC(c2ccccc2Cl)C1 (stereo not shown) [drawing 2769] | 25 to 50% | 51 to 75% | 51 to 75% | 25 to 50% | 5 to 10 µM | 76 to 100% | 76 to 100% |  |  |  | 
25 | COc1cccc(C2CN(C(=O)c3csc4c(O)nc(-c5ccccn5)nc34)CCN2)c1 (stereo not shown) [drawing 2773] | 25 to 50% | 25 to 50% | 25 to 50% | 51 to 75% | 11 to 30 µM | 51 to 75% | 76 to 100% |  |  |  | 
26 | N#Cc1ccc(COCC(=O)Nc2nc(-c3ccccn3)nc3sccc23)cc1 [drawing 2799] | 25 to 50% | 25 to 50% | 25 to 50% | 76 to 100% | 11 to 30 µM | 76 to 100% | 76 to 100% |  |  |  | 
27 | COc1ccnc(-c2nc(O)c3c(Cl)csc3n2)c1 [drawing 2800] | 25 to 50% | 51 to 75% | 51 to 75% | 51 to 75% | 11 to 30 µM | 76 to 100% | 76 to 100% |  |  |  | 
28 | O=C(c1csc2c(O)nc(-c3ccccn3)nc12)N1CCNC(c2ccc(O)cc2)C1 (stereo not shown) [drawing 2808] | 51 to 75% | 76 to 100% | 76 to 100% | 51 to 75% | 5 to 10 µM | 76 to 100% | 76 to 100% |  |  |  | 
29 | NC(=O)Cn1cnc2nc(-c3ccccn3)nc(N3CCOCC3)c21 [drawing 2825] | 25 to 50% | 25 to 50% | 1 to 25% | 25 to 50% |  |  |  |  |  |  | 
30 | Cc1cnc(-c2ccccn2)nc1NC(=O)C1CCCc2cc(C#N)ccc21 (stereo not shown) [drawing 2827] | 25 to 50% | 51 to 75% | 51 to 75% | 25 to 50% |  | 51 to 75% | 51 to 75% |  |  |  | 
31 | O=C(COCc1ccncc1)Nc1nc(-c2ccccn2)nc2sccc12 [drawing 2828] | 51 to 75% | 25 to 50% | 51 to 75% | 51 to 75% |  | 51 to 75% | 51 to 75% |  |  |  | 
32 | O=C(COCc1cccnc1)Nc1nc(-c2ccccn2)nc2sccc12 [drawing 2829] | 51 to 75% | 51 to 75% | 51 to 75% | 51 to 75% |  | 76 to 100% | 76 to 100% |  |  |  | 
33 | Nc1nc(-c2ccccn2)nc2ccsc12 [drawing 2834] | 25 to 50% | 1 to 25% | 25 to 50% | 1 to 25% |  | 25 to 50% | 51 to 75% |  |  |  | 
34 | Cc1cc2nc(-c3ccccn3)nc(N)c2s1 [drawing 2836] | 1 to 25% | 25 to 50% | 51 to 75% | 51 to 75% |  | 51 to 75% | 51 to 75% |  |  |  | 
35 | COCCNc1nc(-c2nccn2C)nc2sc(-c3ccccc3)c(-c3ccccc3)c12 [drawing 3535] |  |  |  |  |  |  |  | 51 to 75% | 1 to 25% | 51 to 75% | 76 to 100%
